Results reported in patent publication US20210220408A1, “ARYL HYDROCARBON RECEPTOR ANTAGONISTS AND METHODS OF USE” (Magenta Therapeutics Inc., priority 2018, published 2021).

Legend:
[1] = tested on: mobilized peripheral blood CD34+ cells; assay: CD34+ expansion assay; format: cell-based; conditions: Homo sapiens; read-out: CD34 Frequency EC50
Procedure: Approximately 3,000 mobilized peripheral blood CD34+ cells were plated per well in 384-well plate at a final volume of 45 μL in HSC growth media (SFEM supplemented with Pen/Strep, 50 ng/mL FLT3L, TPO, SCF and IL-6). Serial dilutions were made in HSC growth media with a top final concentration of 10 μM. 5 μL 10× stock was added to each well. The plate was gently tapped on all sides and incubated for 7 days at 37° C./5% CO2. On day 7, the media was aspirated on a Biotek plate washer and 30 μL staining solution was added to the cells with antibodies against CD34-PE, CD90-APC, CD45RA-PE-CF594 in PBS. Cells were washed once in PBS and resuspended in 80 μL for final volume. 40 μL was acquired by flow cytometry (BD Celesta).

[2] = target: T1, aryl hydrocarbon receptor (AHR) (Homo sapiens, UniProt P35869); assay: DRE-Luciferase reporter high-throughput screen (AHR antagonist, VAF347-activated)
T1 sequence (P35869 11-848): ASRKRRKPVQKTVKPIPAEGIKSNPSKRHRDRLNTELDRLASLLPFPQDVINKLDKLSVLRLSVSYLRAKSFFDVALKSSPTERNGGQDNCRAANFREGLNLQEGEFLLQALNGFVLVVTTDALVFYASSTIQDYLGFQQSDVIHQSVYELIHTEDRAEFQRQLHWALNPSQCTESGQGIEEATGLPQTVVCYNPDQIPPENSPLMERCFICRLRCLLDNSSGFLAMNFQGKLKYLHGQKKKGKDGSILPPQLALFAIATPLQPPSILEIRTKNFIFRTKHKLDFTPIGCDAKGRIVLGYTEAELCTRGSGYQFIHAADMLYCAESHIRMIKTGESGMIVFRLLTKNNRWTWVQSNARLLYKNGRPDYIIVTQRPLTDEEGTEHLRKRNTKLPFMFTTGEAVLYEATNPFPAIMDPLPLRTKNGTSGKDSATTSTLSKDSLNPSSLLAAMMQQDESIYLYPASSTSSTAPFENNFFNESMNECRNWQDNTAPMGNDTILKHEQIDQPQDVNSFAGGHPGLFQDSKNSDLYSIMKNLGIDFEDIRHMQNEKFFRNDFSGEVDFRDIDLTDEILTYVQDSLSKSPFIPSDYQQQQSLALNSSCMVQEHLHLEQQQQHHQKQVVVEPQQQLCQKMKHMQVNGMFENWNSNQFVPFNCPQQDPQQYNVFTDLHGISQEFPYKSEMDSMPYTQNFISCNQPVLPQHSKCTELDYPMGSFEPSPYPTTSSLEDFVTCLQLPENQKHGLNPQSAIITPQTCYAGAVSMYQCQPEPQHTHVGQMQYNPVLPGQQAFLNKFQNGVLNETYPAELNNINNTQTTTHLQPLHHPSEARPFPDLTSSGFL

| EC50 [1] [nM] | IC50 [2] [nM] | Structure (SMILES) |
| --- | --- | --- |
| < 500 | 500 to 1000 | Cc1ccc(-n2nnc(-c3nc4ccccc4s3)c2N)cc1 [compound 94] |
| 1000 to 5000 | 500 to 1000 | Cn1c(SCc2ccc(-c3ccccc3)cc2)nnc1C(F)(F)F [compound 95] |
| 1000 to 5000 | 500 to 1000 | COc1ccccc1-c1nnc(SCc2cccc3ccccc23)n1C [compound 96] |
| 1000 to 5000 | 500 to 1000 | Cc1ccc(N/N=C/c2ccc(-n3ccnc3)cc2)cc1Cl [compound 98] |
| 1000 to 5000 | 500 to 1000 | O=C(N/N=C\c1ccccc1C(F)(F)F)c1n[nH]c2c1CCc1ccccc1-2 [compound 99] |
| < 500 | < 200 | CCc1cccc2c(-c3cn4cc(S(N)(=O)=O)ccc4n3)c[nH]c12 [compound 100] |
| 500 to 1000 | 500 to 1000 | Cc1ccc2nc(-c3ccc(-c4ccccn4)s3)cn2c1 [compound 101] |
| 1000 to 5000 | 500 to 1000 | Clc1ccc(COc2ccc(-c3ccnc4ccnn34)cc2)cc1 [compound 104] |
| 1000 to 5000 | 200 to 500 | Cc1ccc(-c2ccc3c(C)nn(-c4ccccn4)c3n2)cc1 [compound 105] |
| 500 to 1000 | 500 to 1000 | Cc1nn2c(C)c(C(=O)OC(C)C)nnc2c1-c1ccccc1 [compound 106] |
| 1000 to 5000 | 500 to 1000 | Cc1ccc(Nc2cc(-c3ccccc3)nc3ncnn23)cc1 [compound 107] |
| 500 to 1000 | 200 to 500 | OCCCc1nc2n(n1)C(c1cccc(Br)c1)C=C(c1ccc(Cl)cc1)N2 (stereo not shown) [compound 109] |
| < 500 | 500 to 1000 | C/C(=N\Nc1ncc(Br)cn1)c1cccc([N+](=O)[O-])c1 [compound 112] |
| 1000 to 5000 | 200 to 500 | O=[N+]([O-])c1ccc(/C=N/Nc2nccc(-c3cccnc3)n2)cc1 [compound 113] |
| 1000 to 5000 | 500 to 1000 | FC(F)(F)c1ccnc(N/N=C/c2ccc(Cl)cc2Cl)n1 [compound 114] |
| 1000 to 5000 | 200 to 500 | Cc1nc(-c2ccccc2)sc1C(=O)N/N=C/c1cc2ccccc2o1 [compound 115] |
| < 500 | < 200 | Cc1ccc2nc(-c3ccc(Cl)cc3)cc(C(N)=O)c2c1 [compound 116] |
| < 500 | < 200 | COc1ccc(-c2n[nH]c3c2C(=O)CC(c2ccccc2)C3)cc1 (stereo not shown) [compound 117] |
| < 500 | < 200 | Cc1noc(C)c1COc1cccc(C(=O)/N=c2/sccn2C)c1 [compound 118] |
| < 500 | 200 to 500 | CCCc1cc(C(N)=O)c(NC(=O)COc2ccccc2C)s1 [compound 119] |
| 500 to 1000 | 200 to 500 | CSc1ccc(N2C(=O)C3Cc4ccccc4CN3C2=O)cc1 (stereo not shown) [compound 120] |

| EC50 [1] [nM] | IC50 [2] [nM] | Structure (SMILES) |
| --- | --- | --- |
| 1000 to 5000 | 500 to 1000 | COc1cc([N+](=O)[O-])ccc1NC(=O)Nc1nc2c(s1)CCCC2 [compound 121] |
| 1000 to 5000 | 500 to 1000 | Cc1ccc(-c2nc(-c3cc(C)on3)no2)cc1 [compound 122] |
| 1000 to 5000 | 500 to 1000 | FC(F)(F)Oc1ccc(-c2nnc(-c3cccnc3)o2)cc1 [compound 123] |
| 1000 to 5000 | 200 to 500 | Cc1ccc(Cc2c(C)nc(Nc3nc(C)c4ccc(C)cc4n3)[nH]c2=O)cc1 [compound 124] |
| 1000 to 5000 | 500 to 1000 | CC(=O)c1c(C)nc2nc(SCc3cccc(Cl)c3)nn2c1C [compound 125] |
| 1000 to 5000 | 500 to 1000 | Cc1cccc(-c2nc(-c3c[nH]c(C(=O)N4CCCC4)c3)cs2)c1 [compound 126] |
| 1000 to 5000 | 500 to 1000 | COc1ccc(NC(=O)CNc2ccc(C(F)(F)F)cc2)cc1Cl [compound 127] |
| 1000 to 5000 | 500 to 1000 | CC(C)OCCCn1c(=O)c(-c2cccs2)nc2cc(S(=O)(=O)N3CCOCC3)ccc21 [compound 128] |
| 1000 to 5000 | 200 to 500 | O=c1[nH]c(NC2CCCC2)nc2nccc(-c3cccs3)c12 [compound 129] |
| 1000 to 5000 | 500 to 1000 | COc1ccc(-c2nnc(Nc3ccccc3O)c3ccccc23)cc1 [compound 130] |
| 1000 to 5000 | 500 to 1000 | Cc1ccccc1CS(=O)(=O)N1CCc2ccccc2C1 [compound 131] |
| 1000 to 5000 | 500 to 1000 | O=C1CN(C(=O)c2sc3ccccc3c2Cl)c2ccccc2N1 [compound 132] |
| 1000 to 5000 | 500 to 1000 | CCN(CC)C(=O)c1nc2c(s1)CCN(c1ncccn1)CC2 [compound 133] |
| 1000 to 5000 | 500 to 1000 | Cc1ccc(Cl)cc1-n1ccc2nc(N3CCCCC3)ncc2c1=O [compound 134] |
| 1000 to 5000 | 500 to 1000 | CCC(=O)Nc1ccc(N2Cc3ccccc3C2=O)cc1 [compound 135] |
| ≥ 5000 | 500 to 1000 | COc1ccc(-c2ccc3c(N)c(C(=O)NC4CC4)sc3n2)cc1 [compound 136] |
| ≥ 5000 | 500 to 1000 | Cc1c(Cl)c(=O)oc2cc(OCc3ccc(Cl)cc3)ccc12 [compound 137] |
| ≥ 5000 | 500 to 1000 | Cc1ccc2nc(-c3ccc(NC(=O)COC(=O)c4ccc(O)cc4O)cc3)sc2c1 [compound 138] |
| ≥ 5000 | 500 to 1000 | Cc1cc(C(=O)NNC(=O)c2cnn(-c3ccccc3C)c2C(F)(F)F)c(C)o1 [compound 139] |
| ≥ 5000 | 500 to 1000 | Clc1ccc(-c2nc(-c3cnccn3)no2)cc1 [compound 140] |
